According to patent US4980377A, “1-(aminophenyl)-2-aminopropanone derivatives” (Laboratoire L. Lafon, priority 1984, dated 1990):
Counter-ions that a name gives are not always drawn.

Columns and labels:
[1] = test system: gravid White New Zealand female rabbits; experiment: Teratogenicity in gravid White New Zealand rabbits; format: in vivo, rabbit; conditions: day 5 to day 18 of gestation; for Affected foetuses, %: normal limit 1.5%
Method: The protocol used comprised administering to gravid White New Zealand female rabbits (weighing each about 2900-3000 grams before gestation) a daily dose of 0 (batch of control animals), 5,10 or 50 mg/kg of each product to be tested by gastrogavage from day 5 to day 18 of gestation, then carrying out a cesarean operation on day 29 of gestation in order to enumerate:
(i) the total number of foestuses, and
(ii) the total number of foestuses presenting at least one malformation.
To appreciate the results of such a protocol it must be noted that natural malformations may occur. Statistically, the percentage of foetuses presenting at least one malformation in any control batch of gravid White New Zealand female rabbits is lower than or equal to 1.5% with respect to the total number of foetuses.
To be precise in this protocol a malformation comprises at least one of the following cases: articular limb blocade, anorous foetus, deviated tail, shorter tail, skull deformation, exemcephalia.

[2] = pH of solutions in distilled water; format: physicochemical
Method: The neuropsychopharmacological study was undertaken according to the procedures described above for CRL 41 153, CRL 41 213 being adminstered intraperitoneally, in solution in distilled water, in a volume of 20 ml/kg to male mice and a volume of 5 ml/kg to male rats, and the pH of the injected solution varying with the concentration of CRL 41 213 according to the data given in Table II below.

[3] = test system: mice; experiment: Interaction with barbital; format: in vivo, mouse; conditions: i.p., barbital 220 mg/kg
Method: Half an hour after the administration of CRL 41 153, groups of 10 mice receive an intraperitoneal injection of barbital (220 mg/kg).

[4] = test system: CNS; experiment: Neuropsychopharmacological profile as a whole; format: in vivo, mice and rats; conditions: conclusion of the tests
Method: In the neuropsychopharmacological study which follows, a solution of CRL 41 153 in distilled water (pH 1.5) was administered intraperitoneally in a volume of 20 ml/kg to male mice and 5 ml/kg to male rats.

With `CC(C)NCC(=O)c1cccc(N)c1` [A 15, reference compound] the “Affected foetuses, number” value ([1]; 10 mg/kg daily) was 14, the “Total foetuses (live)” value ([1]; 10 mg/kg daily) was 52 and the “Affected foetuses, %” value ([1]; 10 mg/kg daily) was 26.92%.

In the case of `Nc1ccc(C(=O)CN2CCOCC2)cc1` [A 16, 1-(4-aminophenyl)-2-morpholinylethanone, reference compound], the “Affected foetuses, number” value ([1]; 5 mg/kg daily) is reported as 3, the “Total foetuses (live)” value ([1]; 5 mg/kg daily) is reported as 81 and the “Affected foetuses, %” value ([1]; 5 mg/kg daily) is reported as 3.70%. The “Affected foetuses, number” value ([1]; 10 mg/kg daily) was 13, the “Total foetuses (live)” value ([1]; 10 mg/kg daily) was 50 and the “Affected foetuses, %” value ([1]; 10 mg/kg daily) was 26.0%.

For `Nc1ccc(C(=O)CCCN2CCCC2)cc1` [A 6, reference compound], the “Affected foetuses, number” value ([1]; 5 mg/kg daily) was 0, the “Total foetuses (live)” value ([1]; 5 mg/kg daily) was 89 and the “Affected foetuses, %” value ([1]; 5 mg/kg daily) was 0%. For the same molecule, the “Affected foetuses, number” value ([1]; 10 mg/kg daily) was 5, the “Total foetuses (live)” value ([1]; 10 mg/kg daily) was 86 and the “Affected foetuses, %” value ([1]; 10 mg/kg daily) was 5.81%.

With `CC(C(=O)c1cccc(N)c1)N1CCCCC1` (stereo not drawn) [CRL 41 263, 1-(3-aminophenyl)-2-piperidinopropanone dihydrochloride] the “Affected foetuses, number” value ([1]; 10 mg/kg daily) was 0, the “Total foetuses (live)” value ([1]; 10 mg/kg daily) was 92 and the “Affected foetuses, %” value ([1]; 10 mg/kg daily) was 0%.

In the case of `Nc1cccc(C(=O)CN2CCCC2)c1` [A 21, reference compound], the “Affected foetuses, number” value ([1]; 10 mg/kg daily) is reported as 4, the “Total foetuses (live)” value ([1]; 10 mg/kg daily) is reported as 78 and the “Affected foetuses, %” value ([1]; 10 mg/kg daily) is reported as 5.12%.

For `Nc1ccc(C(=O)CCN2CCOCC2)cc1` [A 9, reference compound], the “Affected foetuses, number” value ([1]; 5 mg/kg daily) was 1, the “Total foetuses (live)” value ([1]; 5 mg/kg daily) was 86 and the “Affected foetuses, %” value ([1]; 5 mg/kg daily) was 1.16%. For the same molecule, the “Affected foetuses, number” value ([1]; 10 mg/kg daily) was 0, the “Total foetuses (live)” value ([1]; 10 mg/kg daily) was 94 and the “Affected foetuses, %” value ([1]; 10 mg/kg daily) was 0%. The “Affected foetuses, number” value ([1]; 50 mg/kg daily) was 6, the “Total foetuses (live)” value ([1]; 50 mg/kg daily) was 82 and the “Affected foetuses, %” value ([1]; 50 mg/kg daily) was 7.31%.

For `CC(C)NCCCC(=O)c1cc(Cl)c(N)c(Cl)c1` [A 3, reference compound], the “Affected foetuses, number” value ([1]; 10 mg/kg daily) was 5, the “Total foetuses (live)” value ([1]; 10 mg/kg daily) was 82 and the “Affected foetuses, %” value ([1]; 10 mg/kg daily) was 6.09%.

For `CC(C)(C)NCCCC(=O)c1ccc(N)cc1` [A 2, reference compound], the “Affected foetuses, number” value ([1]; 10 mg/kg daily) was 4, the “Total foetuses (live)” value ([1]; 10 mg/kg daily) was 85 and the “Affected foetuses, %” value ([1]; 10 mg/kg daily) was 4.70%.

For `CC(C)NC(C)C(=O)c1cccc(N)c1` (stereo not drawn) [CRL 41 255], the “Affected foetuses, number” value ([1]; 10 mg/kg daily) was 1, the “Total foetuses (live)” value ([1]; 10 mg/kg daily) was 89 and the “Affected foetuses, %” value ([1]; 10 mg/kg daily) was 1.12%.

For `Nc1ccc(C(=O)CCN2CCSCC2)cc1` [A 13, reference compound], the “Affected foetuses, number” value ([1]; 10 mg/kg daily) was 12, the “Total foetuses (live)” value ([1]; 10 mg/kg daily) was 43 and the “Affected foetuses, %” value ([1]; 10 mg/kg daily) was 27.90%.

With `Nc1ccc(C(=O)CN2CCCCC2)cc1` [A 18, reference compound] the “Affected foetuses, number” value ([1]; 5 mg/kg daily) was 4, the “Total foetuses (live)” value ([1]; 5 mg/kg daily) was 80 and the “Affected foetuses, %” value ([1]; 5 mg/kg daily) was 5.0%. The “Affected foetuses, number” value ([1]; 10 mg/kg daily) was 10, the “Total foetuses (live)” value ([1]; 10 mg/kg daily) was 51 and the “Affected foetuses, %” value ([1]; 10 mg/kg daily) was 19.60%.

With `CC(C)NCC(=O)c1ccc(N)cc1` [A 14, reference compound] the “Affected foetuses, number” value ([1]; 10 mg/kg daily) was 3, the “Total foetuses (live)” value ([1]; 10 mg/kg daily) was 76 and the “Affected foetuses, %” value ([1]; 10 mg/kg daily) was 3.94%.

In the case of `CN1CCN(CCC(=O)c2ccc(N)cc2)CC1` [A 11, reference compound], the “Affected foetuses, number” value ([1]; 10 mg/kg daily) is reported as 6, the “Total foetuses (live)” value ([1]; 10 mg/kg daily) is reported as 80 and the “Affected foetuses, %” value ([1]; 10 mg/kg daily) is reported as 7.50%.

Work on `CC(C(=O)c1ccc(N)cc1)N1CCN(C)CC1` (stereo not drawn) [CRL 41 243] yielded a pH ([2]; 0.1 g/liter in distilled water) of 5.0, a pH ([2]; 0.2 g/liter in distilled water) of 4.5 and a pH ([2]; 0.4 g/liter in distilled water) of 4.0. The pH ([2]; 0.8 g/liter in distilled water) was 3.5, the pH ([2]; 3.2 g/liter in distilled water) was 2.5 and the pH ([2]; 6.4 g/liter in distilled water) was 2.0. It also gave a pH ([2]; 25 g/liter in distilled water) of 1.5, a pH ([2]; 50 g/liter in distilled water) of 1.0 and a pH ([2]; ≤0.05 g/liter in distilled water) of 5.5. The “Duration of the sleep induced by barbital” value [3] was “at strong doses reduces the duration of the sleep induced by barbital”, the “Affected foetuses, number” value ([1]; 50 mg/kg daily) was 0 and the “Total foetuses (live)” value ([1]; 50 mg/kg daily) was 87. The “Affected foetuses, %” value ([1]; 50 mg/kg daily) was 0%, the “Antidepressant effects (overall)” value [4] was “modest antidepressant effects” and the “Sedative effects (overall)” value [4] was “moderate sedative effects”.

With `CCC1CCCCN1C(C)C(=O)c1ccc(N)c(Br)c1` (stereo not drawn) [A 22, 1-(4-amino-3-bromophenyl)2-(2-ethylpiperidino)propanone, reference compound] the “Affected foetuses, number” value ([1]; 10 mg/kg daily) was 13, the “Total foetuses (live)” value ([1]; 10 mg/kg daily) was 46 and the “Affected foetuses, %” value ([1]; 10 mg/kg daily) was 28.26%.

In the case of `Nc1ccc(C(=O)CCN2CCCCC2)cc1` [A 10, reference compound], the “Affected foetuses, number” value ([1]; 10 mg/kg daily) is reported as 4, the “Total foetuses (live)” value ([1]; 10 mg/kg daily) is reported as 78 and the “Affected foetuses, %” value ([1]; 10 mg/kg daily) is reported as 5.12%.

With `Nc1cccc(C(=O)CN2CCCCC2)c1` [A 19, reference compound] the “Affected foetuses, number” value ([1]; 10 mg/kg daily) was 3, the “Total foetuses (live)” value ([1]; 10 mg/kg daily) was 62 and the “Affected foetuses, %” value ([1]; 10 mg/kg daily) was 4.83%.

With `CCCNC(C)C(=O)c1cccc(N)c1` (stereo not drawn) [CRL 41 278] the “Affected foetuses, number” value ([1]; 10 mg/kg daily) was 1, the “Total foetuses (live)” value ([1]; 10 mg/kg daily) was 92 and the “Affected foetuses, %” value ([1]; 10 mg/kg daily) was 1.08%.

With `CC(C(=O)c1cccc(N)c1)N1CCOCC1` (stereo not drawn) [CRL 41 268] the “Affected foetuses, number” value ([1]; 10 mg/kg daily) was 1, the “Total foetuses (live)” value ([1]; 10 mg/kg daily) was 91 and the “Affected foetuses, %” value ([1]; 10 mg/kg daily) was 1.11%.

In the case of `Nc1cccc(C(=O)CN2CCOCC2)c1` [A 17, reference compound], the “Affected foetuses, number” value ([1]; 5 mg/kg daily) is reported as 2, the “Total foetuses (live)” value ([1]; 5 mg/kg daily) is reported as 77 and the “Affected foetuses, %” value ([1]; 5 mg/kg daily) is reported as 2.59%. For the same molecule, the “Affected foetuses, number” value ([1]; 10 mg/kg daily) was 11, the “Total foetuses (live)” value ([1]; 10 mg/kg daily) was 46 and the “Affected foetuses, %” value ([1]; 10 mg/kg daily) was 23.91%.

With `CN(C)CCC(=O)c1ccc(N)cc1` [A 8, reference compound] the “Affected foetuses, number” value ([1]; 10 mg/kg daily) was 5, the “Total foetuses (live)” value ([1]; 10 mg/kg daily) was 81 and the “Affected foetuses, %” value ([1]; 10 mg/kg daily) was 6.17%.

In the case of `Nc1ccc(C(=O)CCCN2CCCCC2)cc1` [A 5, reference compound], the “Affected foetuses, number” value ([1]; 5 mg/kg daily) is reported as 3, the “Total foetuses (live)” value ([1]; 5 mg/kg daily) is reported as 81 and the “Affected foetuses, %” value ([1]; 5 mg/kg daily) is reported as 3.70%. The “Affected foetuses, number” value ([1]; 10 mg/kg daily) was 4, the “Total foetuses (live)” value ([1]; 10 mg/kg daily) was 87 and the “Affected foetuses, %” value ([1]; 10 mg/kg daily) was 4.59%.

With `CCNCCC(=O)c1ccc(N)cc1` [A 7, reference compound] the “Affected foetuses, number” value ([1]; 5 mg/kg daily) was 1, the “Total foetuses (live)” value ([1]; 5 mg/kg daily) was 80 and the “Affected foetuses, %” value ([1]; 5 mg/kg daily) was 1.25%. For the same molecule, the “Affected foetuses, number” value ([1]; 10 mg/kg daily) was 4, the “Total foetuses (live)” value ([1]; 10 mg/kg daily) was 79 and the “Affected foetuses, %” value ([1]; 10 mg/kg daily) was 5.06%.

With `CC(C(=O)c1cccc(N)c1)N(C)C` (stereo not drawn) [CRL 41 260] the “Affected foetuses, number” value ([1]; 10 mg/kg daily) was 1, the “Total foetuses (live)” value ([1]; 10 mg/kg daily) was 87 and the “Affected foetuses, %” value ([1]; 10 mg/kg daily) was 1.14%.

For `Nc1ccc(C(=O)CCNC2CC2)cc1` [A 12, reference compound], the “Affected foetuses, number” value ([1]; 5 mg/kg daily) was 2, the “Total foetuses (live)” value ([1]; 5 mg/kg daily) was 75 and the “Affected foetuses, %” value ([1]; 5 mg/kg daily) was 2.66%.

In the case of `CC(C)NCCCC(=O)c1ccc(N)cc1` [A 1, reference compound], the “Affected foetuses, number” value ([1]; 10 mg/kg daily) is reported as 4, the “Total foetuses (live)” value ([1]; 10 mg/kg daily) is reported as 87 and the “Affected foetuses, %” value ([1]; 10 mg/kg daily) is reported as 4.59%.

In the case of `Nc1ccc(C(=O)CN2CCCC2)cc1` [A 20, reference compound], the “Affected foetuses, number” value ([1]; 10 mg/kg daily) is reported as 5, the “Total foetuses (live)” value ([1]; 10 mg/kg daily) is reported as 74 and the “Affected foetuses, %” value ([1]; 10 mg/kg daily) is reported as 8.10%.
